Series [1] can be described thus: Absorption property of the compound in DMSO assessed as Q band maximum absorption wavelength by UV-visible spectrophotometric method. Type of series: physicochemical.
The nature of series [2]: Absorption property of the compound in DMF assessed as Q band maximum absorption wavelength by UV-visible spectrophotometric method. Format: physicochemical.
A short description of series [3]: Emission property of compound in DMSO assessed as Q band emission wavelength by […]. Type of series: physicochemical.
A short description of series [4]: Emission property of compound in DMF assessed as Q band emission wavelength by […]. Format: physicochemical.
A short description of series [5]: Induction of singlet oxygen generation in DMSO assessed as bleaching rate at 10 uM under 650 nanometer light irradiation. Type of series: functional.
The nature of series [6]: Phototoxicity against human QBC939 cells assessed as reduction in cell viability irradiated with 1 J/cm2 of 650 nanometer laser light preincubated for 24 hrs in dark and measured after 24 hrs by MTT assay. Type of series: functional, cell-based. As to conditions: QBC939, light or radiation study. Background: Formazan colour is commonly taken as a measure of viable cells.

Series [7] can be described thus: Induction of apoptosis in human QBC939 cells assessed as necrotic cells at 2 uM by annexin V-FITC and propidium iodide staining based flow cytometric analysis. Format: functional. Background: In flow cytometry, cells or beads pass a laser one at a time.
A short description of series [8]: Induction of apoptosis in human QBC939 cells assessed as late apoptotic cells at 2 uM by annexin V-FITC and propidium iodide staining based flow cytometric analysis. Format: functional.
Series [9] is described as follows: Induction of apoptosis in human QBC939 cells assessed as early apoptotic cells at 2 uM by annexin V-FITC and propidium iodide staining based flow cytometric analysis (reference value: 0.01 %). Type of series: functional.
Series [10] is described as follows: Induction of apoptosis in human QBC939 cells assessed as necrotic cells at 2 uM in presence of 2J/cm2 light irradiation measured after 2 hrs by annexin V-FITC and propidium iodide staining based flow cytometric analysis (reference value: 0.02 %). Format: functional.
Series [11] can be described thus: Induction of apoptosis in human QBC939 cells assessed as late apoptotic cells at 2 uM in presence of 2J/cm2 light irradiation measured after 2 hrs by annexin V-FITC and propidium iodide staining based flow cytometric analysis (reference value: 0.01 %). Type of series: functional.
A short description of series [12]: Phototoxicity against human QBC939 cells assessed as reduction in cell viability irradiated with 4 J/cm2 of 650 nanometer laser light preincubated for 24 hrs in dark and measured after 24 hrs by MTT assay. Type of series: functional, cell-based. As to conditions: QBC939, light or radiation study.
Series [13] is described as follows: Drug uptake in nude mouse xenografted with QBC939 cells assessed as drug level in tumor tissue at 1 mg/kg, iv measured after 8 hrs by fluorescence imaging assay. Format: ADME, organism-based, Neoplasm. As to conditions: in vivo.
Series [14] can be described thus: Drug uptake in nude mouse xenografted with QBC939 cells assessed as drug level in tumor tissue at 1 mg/kg, iv measured after 24 hrs by fluorescence imaging assay. Type of series: ADME, organism-based, Neoplasm. As to conditions: in vivo.
Series [15] can be described thus: Phototoxicity in ICR mouse assessed as tail weight at 1 mg/kg, iv followed by 10 mW/cm2 light irradiation for 10 mins at 1 day after drug challenge and measured after 1 day of light irradiation by H and E staining based microscopic analysis (reference value: 115.6 +/- 5.6 mg). Type of series: organism-based. As to conditions: in vivo, 48 h, time 2 day.
A short description of series [16]: Phototoxicity in ICR mouse assessed as pathological changes 1 mg/kg, iv in presence of 10 mW/cm2 light irradiation for 10 mins at 1 day after drug challenge and measured after 1 day of light irradiation by H and E staining based microscopic analysis. As to conditions: in vivo, 48 h, time 2 day. Type of series: organism-based.
A short description of series [17]: Phototoxicity in BALB/c nude mouse xenografted with QBC939 cells assessed as change in kidney at 1 mg/kg, iv followed by laser light irradiation at 120 J/cm2 measured after 1 day of light irradiation by H and E staining based histological analysis. Format: organism-based. As to conditions: in vivo, 24 h.
Another series deals with QBC939. The series can be described thus: Photodynamic antitumor activity against human QBC939 cells xenografted in BALB/c nude mouse assessed as decrease in tumor weight at 1 mg/kg, iv under dark condition measured after 13 days. As to conditions: time 13.0 day. Type of series: functional, organism-based. On the technique in general: Xenograft models place foreign cells or tissue in a host animal.

Calls of active or inactive are those of the source. No cut-off for these calls is given here.

Take `COC(=O)C1(C(=O)O)C2c3nc(c(-c4ccccc4)c4ccc([nH]4)c(-c4ccccc4)c4nc(c(-c5ccccc5)c5ccc([nH]5)c3-c3ccccc3)C=C4)C21` (stereo not drawn): the Activity in [1] was found to be 650 nm; in series [2] it was 656 nm; in series [3], 652 nm; in [4], 656 nm; in [7], 3.6%; in series [8], 2.06%. For the same molecule, the Activity in [9] is reported as 0.04%; in series [10], 10.73%; in series [11] it was 14.73%; in series [15], 116.5 mg; in [16], “Non-Toxic”; in [17] it was “Non-Toxic”. The outcome in series [5] was Active. For the same molecule, the IC50 was 1910 nM in [6] and 780 nM in series [12]. The Drug uptake entry in series [13] and in series [14] was “Active” throughout. Besides, the result with QBC939 was inactive.

In general, IC50 refers to the concentration needed to halve the response being measured.

Values taken from ChEMBL document CHEMBL4680162, “Synthesis and pharmacological evaluation of chlorin derivatives for photodynamic therapy of cholangiocarcinoma” (Eur J Med Chem, 2020).
